Laboratory results reported in patent publication US9707233B2, “Heterocyclylamines as PI3K inhibitors” (Incyte Corporation, priority 2011, dated 2017).

Molecular target: PI3Kδ (p110δ/p85α) (Homo sapiens (Human), UniProt O00329)
Test: PI3Kδ scintillation proximity assay (Example A3)
Format: biochemical
Settings: 20 μM ATP, 20 μM PIP2, 4 nM PI3Kδ; read-out: PI3Kδ SPA IC50
Method: [γ-^33P]ATP (10 mCi/mL) was purchased from Perkin-Elmer (Waltham, Mass.). […] PI3Kδ (p110δ/p85α) was purchased from Millipore (Bedford, Mass.). ATP, MgCl2, DTT, EDTA, MOPS and CHAPS were purchased from Sigma-Aldrich (St. Louis, Mo.). Wheat Germ Agglutinin (WGA) YSi SPA Scintillation Beads was purchased from GE healthcare life sciences (Piscataway, N.J.).
The kinase reaction was conducted in polystyrene 384-well matrix white plate from Thermo Fisher Scientific in a final volume of 25 μL. Inhibitors were first diluted serially in DMSO and added to the plate wells before the addition of other reaction components. The final concentration of DMSO in the assay was 0.5%. The PI3K assays were carried out at room temperature in 20 mM MOPS, pH 6.7, 10 mM MgCl2, 5 mM DTT and CHAPS 0.03%. Reactions were initiated by the addition of ATP, the final reaction mixture consisted of 20 μM PIP2, 20 μM ATP, 0.2 μCi [γ-^33P]ATP, 4 nM PI3Kδ. […] 25 mM EDTA, 400 μM ATP. The final concentration of SPA beads was 1.0 mg/mL. After the plate sealing, plates were shaken overnight at room temperature and centrifuged at 1800 rpm for 10 minutes, the radioactivity of the product was determined by scintillation counting on Topcount (Perkin-Elmer). IC50 determination was performed by fitting the curve of percent control activity versus the log of the inhibitor concentration using the GraphPad Prism 3.0 software.

Chain of PI3Kδ (p110δ/p85α) (O00329 whole entry): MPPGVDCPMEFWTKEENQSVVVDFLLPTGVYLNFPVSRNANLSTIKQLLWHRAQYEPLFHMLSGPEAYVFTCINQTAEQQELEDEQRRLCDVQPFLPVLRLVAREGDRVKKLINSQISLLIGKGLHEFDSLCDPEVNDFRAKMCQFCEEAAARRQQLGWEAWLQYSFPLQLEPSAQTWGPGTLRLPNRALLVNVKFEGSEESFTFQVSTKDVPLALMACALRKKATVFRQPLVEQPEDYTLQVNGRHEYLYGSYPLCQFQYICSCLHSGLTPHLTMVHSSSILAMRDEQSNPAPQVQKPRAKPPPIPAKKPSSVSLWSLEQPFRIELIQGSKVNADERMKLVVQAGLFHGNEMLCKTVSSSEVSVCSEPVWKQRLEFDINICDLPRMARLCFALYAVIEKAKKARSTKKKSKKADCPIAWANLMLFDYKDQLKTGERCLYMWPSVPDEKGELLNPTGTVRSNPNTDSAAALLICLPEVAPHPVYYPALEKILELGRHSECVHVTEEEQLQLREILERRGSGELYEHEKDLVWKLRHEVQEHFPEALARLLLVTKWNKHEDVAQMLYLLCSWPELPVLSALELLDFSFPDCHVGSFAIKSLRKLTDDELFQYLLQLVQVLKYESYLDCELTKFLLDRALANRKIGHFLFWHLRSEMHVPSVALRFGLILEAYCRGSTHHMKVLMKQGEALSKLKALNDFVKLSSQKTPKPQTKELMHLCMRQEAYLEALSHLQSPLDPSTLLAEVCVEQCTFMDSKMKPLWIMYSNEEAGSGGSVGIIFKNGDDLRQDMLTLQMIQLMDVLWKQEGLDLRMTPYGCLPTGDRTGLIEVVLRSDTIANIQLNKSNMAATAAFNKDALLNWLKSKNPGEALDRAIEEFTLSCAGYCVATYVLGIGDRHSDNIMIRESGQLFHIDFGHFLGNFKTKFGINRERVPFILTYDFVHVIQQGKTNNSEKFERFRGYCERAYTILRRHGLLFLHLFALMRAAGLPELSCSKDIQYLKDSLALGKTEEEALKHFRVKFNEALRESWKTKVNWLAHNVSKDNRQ
Chain of PI3Kδ (p110δ/p85α) (P27986 whole entry partner): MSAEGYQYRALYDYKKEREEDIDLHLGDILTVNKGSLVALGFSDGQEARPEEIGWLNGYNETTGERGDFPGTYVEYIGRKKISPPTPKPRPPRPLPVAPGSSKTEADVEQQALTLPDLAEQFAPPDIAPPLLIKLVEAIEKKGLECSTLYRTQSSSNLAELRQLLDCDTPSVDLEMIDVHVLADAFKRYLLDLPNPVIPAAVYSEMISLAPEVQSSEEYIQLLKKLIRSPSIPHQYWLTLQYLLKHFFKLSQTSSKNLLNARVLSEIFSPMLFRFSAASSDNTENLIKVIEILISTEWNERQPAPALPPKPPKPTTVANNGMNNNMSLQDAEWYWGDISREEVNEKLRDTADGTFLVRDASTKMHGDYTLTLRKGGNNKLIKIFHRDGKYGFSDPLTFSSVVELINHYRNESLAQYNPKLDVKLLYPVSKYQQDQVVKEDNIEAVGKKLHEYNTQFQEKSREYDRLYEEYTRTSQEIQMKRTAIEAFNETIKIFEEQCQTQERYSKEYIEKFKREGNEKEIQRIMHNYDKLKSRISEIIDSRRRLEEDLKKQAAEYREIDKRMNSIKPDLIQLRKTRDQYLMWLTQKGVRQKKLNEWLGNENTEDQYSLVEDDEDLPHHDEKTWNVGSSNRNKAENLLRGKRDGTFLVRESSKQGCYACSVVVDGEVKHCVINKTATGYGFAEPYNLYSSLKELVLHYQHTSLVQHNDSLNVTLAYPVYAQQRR

| IC50 [nM] | Structure (SMILES) |
| --- | --- |
| ≤ 10 | CCOc1c(C(C)n2nc(C)c3c(N)ncnc32)cc(Cl)c(C)c1-c1cncc(C(=O)N(C)C)c1 (stereo not drawn) [Example 196, 5-(3-(1-(4-amino-3-methyl-1H-pyrazolo[3,4-d]pyrimidin-1-yl)ethyl)-5-chloro-2-ethoxy-6-methylphenyl)-N,N-dimethylnicotinamide] |
| ≤ 10 | CCOc1c(C(C)n2nc(C)c3c(N)ncnc32)cc(Cl)c(C#N)c1C1CN(C(=O)C2CC2)C1 (single isomer, unassigned) [Example 246, 4-[1-(4-Amino-3-methyl-1H-pyrazolo[3,4-d]pyrimidin-1-yl)ethyl]-6-chloro-2-[1-(cyclopropylcarbonyl)azetidin-3-yl]-3-ethoxybenzonitrile] |
| ≤ 10 | CCOc1c(C(C)n2nc(C(F)F)c3c(N)ncnc32)cc(Cl)c(F)c1C1CN(CCO)C1 (racemic) [Example 152, 2-[3-(3-{-1-[4-Amino-3-(difluoromethyl)-1H-pyrazolo[3,4-d]pyrimidin-1-yl]ethyl}-5-chloro-2-ethoxy-6-fluorophenyl)azetidin-1-yl]ethanol] |
| ≤ 10 | COc1c(C(C)n2nc(C)c3c(N)ncnc32)cc(Cl)c(C#N)c1C1CN(S(=O)(=O)C2CC2)C1 (single isomer, unassigned) [Example 288, 4-[1-(4-Amino-3-methyl-1H-pyrazolo[3,4-d]pyrimidin-1-yl)ethyl]-6-chloro-2-[1-(cyclopropylsulfonyl)azetidin-3-yl]-3-methoxybenzonitrile] |
| 50 to 200 | CCOc1c(C(C)n2nc(CN(C)C)c3c(N)ncnc32)cc(Cl)c(C)c1-c1ccc(C(=O)N(C)C)nc1 (racemic) [Example 85, 5-[3-(1-{4-Amino-3-[(dimethylamino)methyl]-1H-pyrazolo[3,4-d]pyrimidin-1-yl}ethyl)-5-chloro-2-ethoxy-6-methylphenyl]-N,N-dimethylpyridine-2-carboxamide tris(trifluoroacetate)] |
| ≤ 10 | CCOc1c(C(C)n2nc(C)c3c(N)ncnc32)cc(Cl)c(C#N)c1C1CNC(=O)C1 (single isomer, unassigned) [Example 349, 4-[1-(4-amino-3-methyl-1H-pyrazolo[3,4-d]pyrimidin-1-yl)ethyl]-6-chloro-3-ethoxy-2-(5-oxopyrrolidin-3-yl)benzonitrile] |
| ≤ 10 | CCOc1c(C(C)n2nc(C)c3c(N)ncnc32)cc(Cl)c(C#N)c1C1CN(C(=O)CC)C1 (single isomer, unassigned) [Example 243, 4-[1-(4-Amino-3-methyl-1H-pyrazolo[3,4-d]pyrimidin-1-yl)ethyl]-6-chloro-3-ethoxy-2-(1-propionylazetidin-3-yl)benzonitrile] |
| ≤ 10 | CCOc1c(C(C)n2nc(-c3cncc(C(=O)N(C)C)c3)c3c(N)ncnc32)cc(Cl)c(C)c1-c1ccc(C(=O)N(C)C)nc1 (racemic) [Example 62, 5-{3-[1-(4-amino-3-{5-[(dimethylamino)carbonyl]pyridin-3-yl}-1H-pyrazolo[3,4-d]pyrimidin-1-yl)ethyl]-5-chloro-2-ethoxy-6-methylphenyl}-N,N-dimethylpyridine-2-carboxamide tris(trifluoroacetate)] |
| ≤ 10 | CCOc1c(C(C)n2nc(C)c3c(N)ncnc32)cc(Cl)c(C#N)c1C1CN(CC2CCOC2)C1 (single isomer, unassigned) [Example 230, 4-[1-(4-Amino-3-methyl-1H-pyrazolo[3,4-d]pyrimidin-1-yl)ethyl]-6-chloro-3-ethoxy-2-[1-(tetrahydrofuran-3-ylmethyl)azetidin-3-yl]benzonitrile] |
| ≤ 10 | CCOc1c(C(C)n2nc(C)c3c(N)ncnc32)cc(Cl)c(C#N)c1C1CN(CC(F)(F)F)C1 (single isomer, unassigned) [Example 233, 4-[1-(4-Amino-3-methyl-1H-pyrazolo[3,4-d]pyrimidin-1-yl)ethyl]-6-chloro-3-ethoxy-2-[1-(2,2,2-trifluoroethyl)azetidin-3-yl]benzonitrile] |
| ≤ 10 | CCOc1c(C(C)n2nc(C)c3c(N)ncnc32)cc(Cl)c(C#N)c1C1CN(S(=O)(=O)C(C)C)C1 (single isomer, unassigned) [Example 250, 4-[1-(4-Amino-3-methyl-1H-pyrazolo[3,4-d]pyrimidin-1-yl)ethyl]-6-chloro-3-ethoxy-2-[1-(isopropylsulfonyl)azetidin-3-yl]benzonitrile] |
| 10 to 50 | CCOc1c(C(C)n2nc(-c3ccc(F)cc3)c3c(N)ncnc32)cc(Cl)c(C)c1-c1ccc(C(=O)N(C)C)nc1 (racemic) [Example 55, 5-(3-{1-[4-amino-3-(4-fluorophenyl)-1H-pyrazolo[3,4-d]pyrimidin-1-yl]ethyl}-5-chloro-2-ethoxy-6-methylphenyl)-N,N-dimethylpyridine-2-carboxamide bis(trifluoroacetate)] |

The next lines start with the compound.

| Structure (SMILES) | IC50 [nM] |
| --- | --- |
| COc1c(C(C)n2ccc(=O)c3c(N)ncnc32)cc(Cl)c(C)c1-c1cncc(S(C)(=O)=O)c1 (racemic) [Example 26, 4-Amino-8-(1-{5-chloro-2-methoxy-4-methyl-3-[5-(methylsulfonyl)pyridin-3-yl]phenyl}ethyl)pyrido[2,3-d]pyrimidin-5(8H)-one bis(trifluoroacetate)] | ≤ 10 |
| CCOc1c(C(C)n2nc(C)c3c(N)ncnc32)cc(C)c(C#N)c1C1CN(C(=O)C(C)(C)O)C1 (single isomer, unassigned) [Example 322, 4-[1-(4-amino-3-methyl-1H-pyrazolo[3,4-d]pyrimidin-1-yl)ethyl]-3-ethoxy-2-[1-(2-hydroxy-2-methylpropanoyl)azetidin-3-yl]-6-methylbenzonitrile] | ≤ 10 |
| COc1c(C(C)n2nc(C)c3c(N)ncnc32)cc(Cl)c(C#N)c1C1CN(C(=O)C2CC2)C1 (single isomer, unassigned) [Example 284, 4-[1-(4-Amino-3-methyl-1H-pyrazolo[3,4-d]pyrimidin-1-yl)ethyl]-6-chloro-2-[1-(cyclopropylcarbonyl)azetidin-3-yl]-3-methoxybenzonitrile] | ≤ 10 |
| CCOc1c(C(C)n2nc(C)c3c(N)ncnc32)cc(Cl)c(C#N)c1C1CN(C(C)C)C1 (stereo not drawn) [Example 215, 4-[1-(4-Amino-3-methyl-1H-pyrazolo[3,4-d]pyrimidin-1-yl)ethyl]-6-chloro-3-ethoxy-2-(1-isopropylazetidin-3-yl)benzonitrile] | ≤ 10 |
| COc1c(C(C)n2nc(C)c3c(N)ncnc32)cc(Cl)c(C)c1C1CN(C(=O)c2cnoc2C)C1 (single isomer, unassigned) [Example 120, 1-[1-(5-Chloro-2-methoxy-4-methyl-3-{1-[(5-methylisoxazol-4-yl)carbonyl]azetidin-3-yl}phenyl)ethyl]-3-methyl-1H-pyrazolo[3,4-d]pyrimidin-4-amine] | ≤ 10 |
| CCOc1c(C(C)n2ccc(=O)c3c(N)ncnc32)cc(Cl)c(C)c1C1CN(C(C)C)C1 (racemic) [Example 35, 4-Amino-8-{1-[5-chloro-2-ethoxy-3-(1-isopropylazetidin-3-yl)-4-methylphenyl]ethyl}pyrido[2,3-d]pyrimidin-5(8H)-one bis(trifluoroacetate)] | ≤ 10 |
| CCNC(=O)N1CC(c2c(C#N)c(Cl)cc(C(C)n3nc(C)c4c(N)ncnc43)c2OC)C1 (single isomer, unassigned) [Example 295, 3-{3-[1-(4-Amino-3-methyl-1H-pyrazolo[3,4-d]pyrimidin-1-yl)ethyl]-5-chloro-6-cyano-2-methoxyphenyl}-N-ethylazetidine-1-carboxamide] | ≤ 10 |
| COc1c(C(C)n2nc(C)c3c(N)ncnc32)cc(C#N)c(C)c1-c1cnn(C)c1 (single isomer, unassigned) [Example 209, 5-[1-(4-Amino-3-methyl-1H-pyrazolo[3,4-d]pyrimidin-1-yl)ethyl]-4-methoxy-2-methyl-3-(1-methyl-1H-pyrazol-4-yl)benzonitrile] | 10 to 50 |
| CCOc1c(C(C)n2nc(C)c3c(N)ncnc32)cc(Cl)c(F)c1C1CNC(=O)C1 (single isomer, unassigned) [Example 348, 4-{3-[1-(4-amino-3-methyl-1H-pyrazolo[3,4-d]pyrimidin-1-yl)ethyl]-5-chloro-2-ethoxy-6-fluorophenyl}pyrrolidin-2-one] | 50 to 200 |
| CCOc1c(C(C)n2nc(C)c3c(N)ncnc32)cc(Cl)c(C#N)c1-c1ccc(-c2nnn(C)n2)nc1 (racemic) [Example 336, 4-[1-(4-amino-3-methyl-1H-pyrazolo[3,4-d]pyrimidin-1-yl)ethyl]-6-chloro-3-ethoxy-2-[6-(2-methyl-2H-tetrazol-5-yl)pyridin-3-yl]benzonitrile] | ≤ 10 |
| COc1c(C(C)n2nc(C)c3c(N)ncnc32)cc(Cl)c(C#N)c1C1CN(C(C)C)C1 (stereo not drawn) [Example 264, 4-[1-(4-Amino-3-methyl-1H-pyrazolo[3,4-d]pyrimidin-1-yl)ethyl]-6-chloro-2-(1-isopropylazetidin-3-yl)-3-methoxybenzonitrile] | ≤ 10 |
| COc1c(C(C)n2ccc(=O)c3c(N)ncnc32)cc(Cl)c(C)c1-c1cncc(F)c1 (racemic) [Example 31, 4-Amino-8-{1-[5-chloro-3-(5-fluoropyridin-3-yl)-2-methoxy-4-methylphenyl]ethyl}pyrido[2,3-d]pyrimidin-5(8H)-one bis(trifluoroacetate)] | ≤ 10 |
